These results are taken from the supplement of paper PMC10307832.

Test in all cases: relative viability (nuclei count vs DMSO), 5 days (fraction); higher = more cells survive
Compound in the test “QS11 + Foretinib”: C1CC2=C(C1)C=C(C=C2)OC3=NC(=C4C(=N3)N(C=N4)CC5=CC=C(C=C5)C6=CC=CC=C6)N[C@@H](CC7=CC=CC=C7)CO [QS11] + COc1cc2c(Oc3ccc(NC(=O)C4(C(=O)Nc5ccc(F)cc5)CC4)cc3F)ccnc2cc1OCCCN1CCOCC1 [Foretinib] (partner 0.25 µM)
In a few lines: (§1)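 Relative viability divides the nuclei count in treated wells by that in vehicle wells. Lung cancer cell lines were seeded in 1536-well plates, dosed by pin tool the next day, and fixed and stained after 5 days in one step with final 0.05% Triton X-100, 1% formaldehyde and 1 ug/ml Hoechst. Dosing was a single drug or a fixed anchor-drug dose plus five library-drug doses (not always all listed) in √10 steps, and values are medians of duplicate plates imaged at 4×.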

Compound in test [1]: C[As](C)SC[C@H](NC(=O)CC[C@H](N)C(=O)O)C(=O)NCC(=O)O [Darinaparsin] + CC1(C)CCC(c2ccc(Cl)cc2)=C(CN2CCN(c3ccc(C(=O)NS(=O)(=O)c4ccc(N[C@H](CCN5CCOCC5)CSc5ccccc5)c(S(=O)(=O)C(F)(F)F)c4)cc3)CC2)C1 [Navitoclax] (partner 0.5 µM)
In a few lines: as §1

Compound in the test “Darinaparsin + Foretinib”: C[As](C)SC[C@H](NC(=O)CC[C@H](N)C(=O)O)C(=O)NCC(=O)O [Darinaparsin] + COc1cc2c(Oc3ccc(NC(=O)C4(C(=O)Nc5ccc(F)cc5)CC4)cc3F)ccnc2cc1OCCCN1CCOCC1 [Foretinib] (partner 0.25 µM)
The method in brief: as §1

Compound in the test “Darinaparsin + Lapatinib”: C[As](C)SC[C@H](NC(=O)CC[C@H](N)C(=O)O)C(=O)NCC(=O)O [Darinaparsin] + CS(=O)(=O)CCNCc1ccc(-c2ccc3ncnc(Nc4ccc(OCc5cccc(F)c5)c(Cl)c4)c3c2)o1 [Lapatinib] (partner 2 µM)
The method in brief: as §1

Compound in test [2]: C[As](C)SC[C@H](NC(=O)CC[C@H](N)C(=O)O)C(=O)NCC(=O)O [Darinaparsin] + O=C(CCCCCCC(=O)Nc1ccccc1)NO [Vorinostat] (partner 1 µM)
In a few lines: as §1

For LCLC-97TM1, the relative viability stood at 0.957 with QS11 + Foretinib (first compound 0.08 µM); 0.949 with QS11 + Foretinib (first compound 0.253 µM); 0.934 with QS11 + Foretinib (first compound 2.53 µM); 0.931 in the test with QS11 + Foretinib (first compound 8 µM); 0.383 in test [1] (first compound 0.08 µM); 0.947 in test [1] (first compound 0.8 µM). Further, the relative viability is 0.398 in test [1] (first compound 2.53 µM); 0.579 in test [1] (first compound 8 µM); 0.981 in the test with Darinaparsin + Foretinib (first compound 0.08 µM); 0.882 with Darinaparsin + Foretinib (first compound 0.8 µM); 0.824 in the test with Darinaparsin + Foretinib (first compound 2.53 µM); 1.04 in the test with Darinaparsin + Foretinib (first compound 8 µM). The relative viability with Darinaparsin + Lapatinib (first compound 0.08 µM) came to 0.782; with Darinaparsin + Lapatinib (first compound 0.8 µM) it was 0.579; with Darinaparsin + Lapatinib (first compound 2.53 µM), 0.803; with Darinaparsin + Lapatinib (first compound 8 µM) it was 0.867; in test [2] (first compound 0.08 µM), 0.882; in test [2] (first compound 0.8 µM) it was 0.862. For the same cell line, the relative viability in test [2] (first compound 2.53 µM) came to 0.744; in test [2] (first compound 8 µM), 0.895.
